Measured values: patent publication US20060009493A1, “Indolinone hydrazides as c-Met inhibitors” (Sugen, Inc., priority 2003, published 2006)
pIC50: −log10 of the molar value. Several values for one entry are separate records, joined by “and”; a condition that tells them apart may be missing. Equal entries are not always repeated.

Biological target: T1, GST fusion protein containing the Met kinase domain (Homo sapiens, UniProt P08581)
T1 construct: Purified GST fusion protein containing the Met kinase domain, Sugen, Inc
T1 sequence (P08581 1078-1345 limits assumed): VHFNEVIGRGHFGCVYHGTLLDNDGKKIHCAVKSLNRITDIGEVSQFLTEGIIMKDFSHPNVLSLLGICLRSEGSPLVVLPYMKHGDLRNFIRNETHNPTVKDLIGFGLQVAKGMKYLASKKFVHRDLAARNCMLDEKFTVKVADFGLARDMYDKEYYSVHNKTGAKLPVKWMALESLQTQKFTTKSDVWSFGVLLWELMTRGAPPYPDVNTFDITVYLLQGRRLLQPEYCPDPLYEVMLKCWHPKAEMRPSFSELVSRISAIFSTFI
Test: MET Transphosphorylation Assay (ELISA, poly(Glu,Tyr) 4:1 substrate)
Format: biochemical
Conditions: met transphosphorylation of poly(glutamic acid:tyrosine 4:1) substrate; two values in a cell separated by '/'
Procedure: MET Transphosphorylation Assay
This assay is used to measure phosphotyrosine levels on a poly(glutamic acid:tyrosine (4:1)) substrate as a means for identifying agonists/antagonists of met transphosphorylation of the substrate.
• 1. […] PBS, Gibco Catalog # 450-1300EB • 4. 50 mM HEPES • 5. […] Purified GST fusion protein containing the Met kinase domain, Sugen, Inc. • 7. TBST Buffer. • 8. 10% aqueous (MilliQue H2O) DMSO. • 9. […] 2× Kinase Dilution Buffer: for 100 ml, mix 10 mL 1M HEPES at pH 7.5 with 0.4 mL 5% BSA/PBS, 0.2 mL 0.1 M sodium orthovanadate and 1 mL 5M sodium chloride in 88.4 mL dH2O. • 11. 4×ATP Reaction Mixture: for 10 mL, mix 0.4 mL 1 M manganese chloride and 0.02 mL 0.1 M ATP in […] dH2O. • 12. 4× Negative Controls Mixture: for 10 mL, mix 0.4 mL 1 M manganese chloride in 9.6 mL dH2O.
13. […] 500 mM EDTA. • 15. Antibody Dilution Buffer: for 100 mL, mix 10 mL 5% BSA/PBS, 0.5 mL 5% Carnation Instant Milk® in PBS and 0.1 mL 0.1 M sodium orthovanadate in 88.4 mL TBST. • 16. Rabbit polyclonal antophosphotyrosine antibody, Sugen, Inc. • 17. Goat anti-rabbit horseradish peroxidase conjugated antibody, Biosource, Inc. • 18. ABTS Solution: for 1 L, mix 19.21 g citric acid, 35.49 g Na2HPO4 and 500 mg ABTS with sufficient dH2O to make 1 L. • 19. ABTS/H2O2: mix 15 mL ABST solution with 2 μL H2O2 five minutes before use. • 20. 0.2 M HCl Procedure: • 1. Coat ELISA plates with 2 μg Poly(Glu-Tyr) in 100 μL PBS, store overnight at 4° C. • 2. Block plate with 150 μL of 5% BSA/PBS for 60 min. • 3. Wash plate twice with PBS, once with 50 mM Hepes buffer pH 7.4. • 4. Add 50 μl of the diluted kinase to all wells. (Purified kinase is diluted with Kinase Dilution Buffer. Final concentration should be 10 ng/well.) • 5. Add 25 μL of the test compound (in 4% DMSO) or DMSO alone (4% in dH2O) for controls to plate. • 6. Incubate the kinase/compound mixture for 15 minutes. • 7. Add 25 μL of 40 mM MnCl2 to the negative control wells. • 8. Add 25 μL ATP/MnCl2 mixture to the all other wells (except the negative controls). Incubate for 5 min. • 9. Add 25 μL 500 mM EDTA to stop reaction. • 10. Wash plate 3× with TBST. • 11. Add 100 μL rabbit polyclonal anti-Ptyr diluted 1:10,000 in Antibody Dilution Buffer to each well. Incubate, with shaking, at room temperature for one hour. • 12. Wash plate 3× with TBST. • 13. […] Add 100 μL per well and incubate at room temperature, with shaking, for one hour. • 14. Wash plate 1× with PBS. • 15. Add 100 μl of ABTS/H2O2 solution to each well. • 16. If necessary, stop the development reaction with the addition of […] of 0.2M HCl per well. • 17.

pIC50	Compound
4.98	O=C(Cc1ccc(OCCN2CCCC2)cc1)N/N=C1\C(=O)Nc2ccccc21 [Example I-1]
4.97	O=C1Nc2ccccc2/C1=N/NC(=O)C(O)c1ccc(O)cc1 (stereo not shown) [Example I-3, Hydroxy-(4-hydroxy-phenyl)-acetic acid [(3Z)-2-oxo-1,2-dihydro-indol-3-ylidene]-hydrazide]
< 4.70	CC(=O)Nc1ccc(CC(=O)N/N=C2\C(=O)Nc3ccccc32)cc1 [Example I-4, N-[4-[(3Z)-2-Oxo-1,2-dihydro-indol-3-ylidene-hydrazinocarbonylmethyl]-phenyl]-acetamide]
< 4.70 and 4.87	COC(C(=O)N/N=C1\C(=O)Nc2ccccc21)c1ccccc1 (stereo not shown) [Example I-5, Methoxy-phenyl-acetic acid [(3Z)-2-oxo-1,2-dihydro-indol-3-ylidene]-hydrazide]
< 4.70	O=C1Nc2ccccc2/C1=N/NC(=O)C1(c2ccccc2)CC1 [Example I-6, 1-Phenyl-cyclopropanecarboxylic acid [(3Z)-2-oxo-1,2-dihydro-indol-3-ylidene]-hydrazide]
< 4.70	O=C1Nc2ccccc2/C1=N/NC(=O)C(CO)c1ccccc1 (stereo not shown) [Example I-7, 3-Hydroxy-2-phenyl-propionic acid [(3Z)-2-oxo-1,2-dihydro-indol-3-ylidene]-hydrazide]
8.15	O=C(Cc1ccc(O)cc1)N/N=C1\C(=O)Nc2ccc(S(=O)(=O)Cc3c(Cl)cccc3Cl)cc21 [Example I-8, (4-Hydroxy-phenyl)-acetic acid [(3Z)-5-(2,6-dichloro-phenylmethanesulfonyl)-2-oxo-1,2-dihydro-indol-3-ylidene]-hydrazide]
> 8.04 and 7.66	CS(=O)(=O)c1ccc2c(c1)/C(=N/NC(=O)Cc1ccc(O)cc1)C(=O)N2 [Example I-9, (4-Hydroxy-phenyl)-acetic acid [(3Z)-5-methanesulfonyl-2-oxo-1,2-dihydro-indol-3-ylidene]-hydrazide]
6.05	O=C(Cc1ccc(O)cc1)N/N=C1\C(=O)Nc2ccc(C(=O)O)cc21 [Example I-10, (3Z)-3-{[2-(4-Hydroxy-phenyl)-acetyl]-hydrazono}-(3Z)-2-oxo-2,3-dihydro-1H-indole-5-carboxylic acid]
7.37	COC(=O)c1ccc2c(c1)/C(=N/NC(=O)Cc1ccc(O)cc1)C(=O)N2 [Example I-11, (3Z)-3-{[2-(4-Hydroxy-phenyl)-acetyl]-hydrazono}-(3Z)-2-oxo-2,3-dihydro-1H-indole-5-carboxylic acid methyl ester]
7.11	CN1CCN(C(=O)c2ccc3c(c2)/C(=N/NC(=O)Cc2ccc(O)cc2)C(=O)N3)CC1 [Example I-12, (4-Hydroxy-phenyl)-acetic acid [(3Z)-5-(4-methyl-piperazine-1-carbonyl)-2-oxo-1,2-dihydro-indol-3-ylidene]-hydrazide]
5.97	O=C(Cc1ccc(O)cc1)N/N=C1\C(=O)Nc2ccc(Br)c(-c3cccc(F)c3)c21 [Example I-13, (4-Hydroxy-phenyl)-acetic acid [(3Z)-5-bromo-4-(3-fluoro-phenyl)-2-oxo-1,2-dihydro-indol-3-ylidene]-hydrazide]
6.30	O=C(Cc1ccc(O)cc1)N/N=C1\C(=O)Nc2cccc(-c3cccc(F)c3)c21 [Example I-14, (4-Hydroxy-phenyl)-acetic acid [(3Z)-4-(3-fluoro-phenyl)-2-oxo-1,2-dihydro-indol-3-ylidene]-hydrazide]
6.05	O=C(Cc1ccc(O)cc1)N/N=C1\C(=O)Nc2cccc(-c3ccc(F)cc3)c21 [Example I-15, (4-Hydroxy-phenyl)-acetic acid [(3Z)-4-(4-fluoro-phenyl)-2-oxo-1,2-dihydro-indol-3-ylidene]-hydrazide]
6.85	CC(C(=O)N/N=C1\C(=O)Nc2cccc(-c3cccc(F)c3)c21)c1ccc(O)cc1 (stereo not shown) [Example I-16, 2-(4-Hydroxy-phenyl)-propionic acid [(3Z)-4-(3-fluoro-phenyl)-2-oxo-1,2-dihydro-indol-3-ylidene]-hydrazide]
7.24	O=C(Cc1ccc(O)cc1)N/N=C1\C(=O)Nc2ccc(OC(F)(F)F)cc21 [Example I-17, (4-Hydroxy-phenyl)-acetic acid [(3Z)-2-oxo-5-trifluoromethoxy-1,2-dihydro-indol-3-ylidene]-hydrazide]
< 4.70	O=C(Cc1ccc(O)cc1)N/N=C1\C(=O)Nc2cccc(C3CCNCC3)c21 [Example I-18, (4-Hydroxy-phenyl)-acetic acid [(3Z)-2-oxo-4-piperidin-4-yl-1,2-dihydro-indol-3-ylidene]-hydrazide]
< 4.70	CSc1ccc(CC(=O)N/N=C2\C(=O)Nc3ccccc32)cc1 [Example I-19, (4-Methylsulfanyl-phenyl)-acetic acid [(3Z]-2-oxo-1,2-dihydro-indol-3-ylidene]-hydrazide]
6.37	O=C(Cc1ccc(F)cc1)N/N=C1\C(=O)Nc2ccc(C(=O)N3CCC(NC4CC4)CC3)c(Cl)c21 [Example I-20, (4-Fluoro-phenyl)-acetic acid [(3Z)-4-chloro-5-(4-cyclopropylamino-piperidine-1-carbonyl)-2-oxo-1,2-dihydro-indol-3-ylidene]-hydrazide]
< 4.70	CS(=O)(=O)c1ccc(CC(=O)N/N=C2\C(=O)Nc3ccccc32)cc1 [Example I-21, (4-Methanesulfonyl-phenyl)-acetic acid [(3Z)-2-oxo-1,2-dihydro-indol-3-ylidene]-hydrazide]
6.60	O=C(Cc1ccc2c(c1)OCO2)N/N=C1\C(=O)Nc2ccc(Br)cc21 [Example I-22, Benzo[1,3]dioxol-5-yl-acetic acid [(3Z)-5-bromo-2-oxo-1,2-dihydro-indol-3-ylidene]-hydrazide]
6.82	O=C(Cc1ccc2c(c1)OCO2)N/N=C1\C(=O)Nc2ccccc21 [Example I-23, Benzo[1,3]dioxol-5-yl-acetic acid [(3Z)-2-oxo-1,2-dihydro-indol-3-ylidene]-hydrazide]
6.96	O=C(Cc1ccc2c(c1)OCO2)N/N=C1\C(=O)Nc2c(Cl)ccc(Cl)c21 [Example I-24, Benzo[1,3]dioxol-5-yl-acetic acid [(3Z)-4,7-dichloro-2-oxo-1,2-dihydro-indol-3-ylidene]-hydrazide]
7.11	CN1CCN(S(=O)(=O)c2ccc3c(c2)/C(=N/NC(=O)Cc2ccc(O)cc2)C(=O)N3)CC1 [Example I-25, (4-Hydroxy-phenyl)-acetic acid [(3Z)-5-(4-methyl-piperazine-1-sulfonyl)-2-oxo-1,2-dihydro-indol-3-ylidene]-hydrazide]
7.11	O=C(Cc1ccc(O)cc1)N/N=C1\C(=O)Nc2ccc(S(=O)(=O)NCCN3CCOCC3)cc21 [Example I-26, (3Z)-3-{[2-(4-Hydroxy-phenyl)-acetyl]-hydrazono}-2-oxo-2,3-dihydro-1H-indole-5-sulfonic acid (2-morpholin-4-yl-ethyl)-amide]
6.41	CC(C(=O)N/N=C1\C(=O)Nc2ccc(S(=O)(=O)NCCN3CCOCC3)cc21)c1ccc(O)cc1 (stereo not shown) [Example I-27, (3Z)-3-{[2-(4-Hydroxy-phenyl)-propionyl]-hydrazono}-2-oxo-2,3-dihydro-1H-indole-5-sulfonic acid (2-morpholin-4-yl-ethyl)-amide]
7.62	O=C(Cc1ccc(O)cc1)N/N=C1\C(=O)Nc2ccc(C(=O)N3CCC(NC4CC4)CC3)c(Cl)c21 [Example I-28, (4-Hydroxy-phenyl)-acetic acid [(3Z)-4-chloro-5-(4-cyclopropylamino-piperidine-1-carbonyl)-2-oxo-1,2-dihydro-indol-3-ylidene]-hydrazide]
6.64	CC(C(=O)N/N=C1\C(=O)Nc2ccc(C(=O)O)c(Cl)c21)c1ccc(F)cc1 (stereo not shown) [Example I-29, (3Z)-4-Chloro-3-{[2-(4-fluoro-phenyl)-propionyl]-hydrazono}-2-oxo-2,3-dihydro-1H-indole-5-carboxylic acid]
